Laboratory results published in patent US12297193B2, “PTPN2/PTP1B degrader and therapeutic method thereof” (NORTHRIDGE HEALTH GROUP (HONG KONG) CO., LIMITED, priority 2023, dated 2025).
Entries after “also recorded” stand apart in the source; their conditions may differ. Like-named read-outs stand apart in the source and are kept apart here.

How the values were obtained:
[1] = biological target: T1, PTPN2 (Homo sapiens, UniProt P17706); assay: Western blot, PTPN2 degradation in HEK293T cells; assay type: cell-based; details: 48 hours incubation; for DC50 / Dmax: Western blot; for DC50: read-out: Relative DC50, PTPN2 degradation; for Dmax: HEK-293T
T1 construct: endogenous in cells; host or cells: HEK293T
T1 sequence (P17706 1-415): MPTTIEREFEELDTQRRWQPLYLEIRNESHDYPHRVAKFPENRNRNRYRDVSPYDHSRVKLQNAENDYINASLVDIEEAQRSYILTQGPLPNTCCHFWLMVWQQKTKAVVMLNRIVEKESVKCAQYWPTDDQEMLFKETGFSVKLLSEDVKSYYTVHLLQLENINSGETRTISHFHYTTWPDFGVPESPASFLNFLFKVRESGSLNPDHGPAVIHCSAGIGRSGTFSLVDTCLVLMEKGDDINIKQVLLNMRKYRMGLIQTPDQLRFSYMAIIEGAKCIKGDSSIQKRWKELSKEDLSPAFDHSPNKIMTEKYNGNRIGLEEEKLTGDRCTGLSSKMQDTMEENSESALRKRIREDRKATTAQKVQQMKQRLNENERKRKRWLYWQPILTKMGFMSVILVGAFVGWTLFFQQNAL
Procedure: (§1) 1. Sample preparation: 150,000 HEK293T cells per well were seeded in a 24-well plate and incubated overnight. Compounds were added to the wells at the final concentrations of 20 μM, 10 μM, 5 μM, 2 μM, 1 μM, 500 nM, 200 nM, 100 nM, 50 nM, 20 nM, 5 nM, 0 nM (solvent control) and medium (negative control) and incubated for 48 hours. After incubation, the supernatants were discarded. Cells were washed with pre-chilled PBS once, 40 μL cell lysis buffer were added to lyse the cells and then centrifuged at 14000 g, 4° C. for 20 mins. The supernatant was aspirated and the protein concentration were quantified. 5× loading buffer was added into the samples, and the samples were heated at 70° C. for 10 minutes.
(§2) 2. Experimental procedure: 20 μg protein were added to each well then start SDS-PAGE electrophoresis. The protein was transferred to the PVDF membrane.
(§3) The blotting current was set at 250 mA for 90 min. 5% BSA in TBST was used to block the membrane for 1 h at room temperature. After diluting the primary antibody according to Table 2, the membrane was hybridized overnight at 4° C. The membrane was washed three times with TBST, 7 minutes each time. After diluting the secondary antibody, the membrane was incubated for 2 h at room temperature. The membrane was washed three times with TBST for 7 min each time.
(§4) ImageJ software was used to detect the gray value of each band and enter it into the following formula as the degradation rate (D): […]
(§5) D is the degradation rate, V refers to the gray value: target refers to the name of the protein targeted for degradation, housekeeping refers to housekeeping proteins such as GAPDH and beta-actin: DMSO refers to the solvent DMSO added only to dissolve PROTAC and incubate cells: Lane X refers to a lane with a specific incubation concentration; Lane Y refers to a lane where only the solvent DMSO is added to incubate cells.
(§6) A graph was drawn with degradation rate as the vertical axis and drug incubation concentration as the horizontal axis, and DC50 and Dmax were read and recorded in Tables 3, 4, 5 and 6.

[2] = system: HEK293/Luc (IFN-γ) stable cell line; assay: Luciferase reporter assay in HEK293/Luc (IFN-γ) cells; assay type: cell-based; details: Homo sapiens; stimulated with 30 ng/mL IFN-γ in HEK293/Luc; 6 h incubation; read-out: Absolute EC50
Procedure: HEK293/Luc (IFN-γ) stable cell line (Cat: M00953) and Fire-Lumi luciferase detection kit (Cat: L00877C) were purchased from GenScript. The complete culture medium formulation was DMEM containing 10% FBS and 1% Penicillin-Streptomycin. For EC50 detection, 60 μL HEK293/Luc (IFN-γ) cells were seeded at the density of 10,000 cells/well into 384 well assay plates (761601, NEST) using the medium above mentioned.
The working solutions for each sample were prepared triplicated at 9 gradient doses, starting from 10 µM and diluted by 4 folds. The IFN-γ working solution was prepared at 0.8 ng/mL concentration. The sample working solution and IFN-γ working solution were mixed at the volume of 1:1, and then 20 μl/well of the aliquot was added into the 384-well plate and cells were incubated at 37° C./5% CO2 for 6 h. 40 μL/well prewarmed detection reagents were added into the cells. Luminescent signals could be determined after 5-minute incubation. The data were plotted and four-parameter fitting was performed on the test data to obtain the relative EC50 value of the curve by Prism GraphPad 9 software (Table 1).

[3] = PK study in SD rats after a single intravenous administration; assay type: in vivo; details: for clearance / concentration at 0.083 h / concentration at 0.25 h / concentration at 0.5 h / concentration at 1 h / concentration at 2 h / concentration at 4 h / concentration at 8 h / concentration at 10 h / concentration at 24 h / AUC(0-t): Sprague-Dawley (SD), rat, plasma; for AUC(0-t): read-out: AUC0-24 h
Procedure: A PK study of the compounds after a single intravenous administration.
SD rats were randomly assigned to 5 groups (3 rats/group). Blood samples were collected from animals at 0.083 h, 0.25 h, 0.5 h, 1 h, 2 h, 4 h, 8 h, 10 h and 24 h after administration. Blood samples were collected in an anticoagulant tube containing EDTA-K2. The concentration of compounds in plasma were determined by an LC-MS/MS method with the lower limit of quantitation (LLOQ) of 0.50 ng/mL. Pharmacokinetic parameters were calculated with WinNonlin to assess the PK characteristics in SD rats. The formulation prescription was DMSO: Cremophor EL: 5% Glucose Solution=5:5:90 (v/v/v).

[4] = biological target: T2, PTP1B (Homo sapiens, UniProt P18031); assay: Western blot, PTP1B degradation in HEK293T cells; assay type: cell-based; details: 48 hours incubation; for DC50 / Dmax: Western blot; for DC50: read-out: Relative DC50, PTP1B degradation; for Dmax: HEK-293T
T2 construct: endogenous in cells; host or cells: HEK293T
T2 sequence (P18031 1-435): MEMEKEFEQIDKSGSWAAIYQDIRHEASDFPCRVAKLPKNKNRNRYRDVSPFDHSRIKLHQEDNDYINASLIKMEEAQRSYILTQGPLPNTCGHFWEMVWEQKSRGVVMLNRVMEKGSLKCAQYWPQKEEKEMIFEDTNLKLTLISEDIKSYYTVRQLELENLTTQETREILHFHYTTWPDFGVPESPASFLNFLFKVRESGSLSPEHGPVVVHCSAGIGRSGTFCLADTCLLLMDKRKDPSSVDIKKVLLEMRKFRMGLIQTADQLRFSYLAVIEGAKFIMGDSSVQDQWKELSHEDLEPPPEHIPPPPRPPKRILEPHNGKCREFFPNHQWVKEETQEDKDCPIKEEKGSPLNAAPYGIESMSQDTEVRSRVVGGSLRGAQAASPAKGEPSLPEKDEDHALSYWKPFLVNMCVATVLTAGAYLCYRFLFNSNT
Procedure: as §1, §2, §3, §4, §5, §6

SMILES: CC1(C)CC(Nc2cccc(-c3sc(C(=O)O)c(OCC(=O)O)c3Cl)c2)CCN1S(=O)(=O)Cc1ccc2cnc(N3CCC(c4ccc5c6c(cccc46)C(=O)N5C4CCC(=O)NC4=O)CC3)nc2c1 (stereo not shown) [Compound 16]
- DC50 [1]: 38.8 nM
- Dmax [1]: 96.5%

SMILES: CC1(C)CC(Nc2cccc(-c3sc(C(=O)O)c(OCC(=O)O)c3Cl)c2)CCN1S(=O)(=O)Cc1ccc2oc(N3CCC(c4ccc5c6c(cccc46)C(=O)N5C4CCC(=O)NC4=O)CC3)nc2c1 (stereo not shown) [Compound 21]
- EC50 [2]: 48 nM
- clearance ([3]; 1 mg/kg): 0.661 mL/min/kg
- concentration at 0.083 h ([3]; 1 mg/kg): 18100 ng/mL
- concentration at 0.25 h ([3]; 1 mg/kg): 14600 ng/mL
- concentration at 0.5 h ([3]; 1 mg/kg): 9660 ng/mL
- concentration at 1 h ([3]; 1 mg/kg): 5980 ng/mL
- concentration at 2 h ([3]; 1 mg/kg): 2890 ng/mL
- concentration at 4 h ([3]; 1 mg/kg): 1000 ng/mL
- concentration at 8 h ([3]; 1 mg/kg): 372 ng/mL
- concentration at 10 h ([3]; 1 mg/kg): 321 ng/mL
- concentration at 24 h ([3]; 1 mg/kg, 24 h): 98.6 ng/mL
- AUC(0-t) ([3]; 1 mg/kg): 27200 ng·h/mL
- Effect on PTP1B compared with PTPN2 at the same concentration (selectivity, FIG. 1), in words [4]: the degradation ability of PTPN2 is better than that of PTP1B; also recorded: much weaker than that of PTPN2
- DC50 [4]: 861 nM
- Dmax [4]: 97.3%
- Degradation ability on PTPN2 protein at different concentrations (FIG. 1), in words ([1]; 5 nM to 20 μM): good degradation ability on PTPN2 protein in a dose-dependent manner; also recorded: completely degraded at high concentrations
- DC50 [1]: 10.1 nM
- Dmax [1]: 100%

SMILES: O=C(O)COc1c(C(=O)O)sc(-c2cccc(NC3CCN(S(=O)(=O)Cc4ccc5oc(N6CCC(c7ccc8c9c(cccc79)C(=O)N8C7CCC(=O)NC7=O)CC6)nc5c4)CC3)c2)c1Cl (stereo not shown) [Compound 23]
- clearance ([3]; 1 mg/kg): 0.684 mL/min/kg
- concentration at 0.083 h ([3]; 1 mg/kg): 21700 ng/mL
- concentration at 0.25 h ([3]; 1 mg/kg): 17900 ng/mL
- concentration at 0.5 h ([3]; 1 mg/kg): 12600 ng/mL
- concentration at 1 h ([3]; 1 mg/kg): 7110 ng/mL
- concentration at 2 h ([3]; 1 mg/kg): 2420 ng/mL
- concentration at 4 h ([3]; 1 mg/kg): 525 ng/mL
- concentration at 8 h ([3]; 1 mg/kg): 110 ng/mL
- concentration at 10 h ([3]; 1 mg/kg): 95.1 ng/mL
- concentration at 24 h ([3]; 1 mg/kg, 24 h): 39.6 ng/mL
- AUC(0-t) ([3]; 1 mg/kg): 24700 ng·h/mL

SMILES: O=C(O)COc1c(C(=O)O)sc(-c2cccc(NC3CCN(S(=O)(=O)Cc4ccc5oc(N6CCC(c7ccc8c9c(cccc79)C(=O)N8C7CCC(=O)NC7=O)CC6)nc5c4)C4(CC4)C3)c2)c1Cl (stereo not shown) [Compound 57]
- clearance ([3]; 1 mg/kg): 0.351 mL/min/kg
- concentration at 0.083 h ([3]; 1 mg/kg): 21900 ng/mL
- concentration at 0.25 h ([3]; 1 mg/kg): 17000 ng/mL
- concentration at 0.5 h ([3]; 1 mg/kg): 13200 ng/mL
- concentration at 1 h ([3]; 1 mg/kg): 8730 ng/mL
- concentration at 2 h ([3]; 1 mg/kg): 5430 ng/mL
- concentration at 4 h ([3]; 1 mg/kg): 2870 ng/mL
- concentration at 8 h ([3]; 1 mg/kg): 1090 ng/mL
- concentration at 10 h ([3]; 1 mg/kg): 809 ng/mL
- concentration at 24 h ([3]; 1 mg/kg, 24 h): 206 ng/mL
- AUC(0-t) ([3]; 1 mg/kg): 48700 ng·h/mL
- DC50 [1]: 51.2 nM
- Dmax [1]: 97.2%

SMILES: CC1(C)CC(Nc2cccc(-c3sc(C(=O)O)c(OC(F)(F)C(=O)O)c3Cl)c2)CCN1S(=O)(=O)Cc1ccc2oc(N3CCC(c4ccc5c6c(cccc46)C(=O)N5C4CCC(=O)NC4=O)CC3)nc2c1 (stereo not shown) [Compound 78]
- DC50 [1]: 55.2 nM
- Dmax [1]: 100%

SMILES: [2H]C([2H])(c1ccc2oc(N3CCC(c4ccc5c6c(cccc46)C(=O)N5C4CCC(=O)NC4=O)CC3)nc2c1)S(=O)(=O)N1CCC(Nc2cccc(-c3sc(C(=O)O)c(OCC(=O)O)c3Cl)c2)CC1(C)C (stereo not shown) [Compound 151]
- clearance ([3]; 1 mg/kg): 0.568 mL/min/kg
- concentration at 0.083 h ([3]; 1 mg/kg): 19400 ng/mL
- concentration at 0.25 h ([3]; 1 mg/kg): 14900 ng/mL
- concentration at 0.5 h ([3]; 1 mg/kg): 11500 ng/mL
- concentration at 1 h ([3]; 1 mg/kg): 7920 ng/mL
- concentration at 2 h ([3]; 1 mg/kg): 3810 ng/mL
- concentration at 4 h ([3]; 1 mg/kg): 1050 ng/mL
- concentration at 8 h ([3]; 1 mg/kg): 345 ng/mL
- concentration at 10 h ([3]; 1 mg/kg): 279 ng/mL
- concentration at 24 h ([3]; 1 mg/kg, 24 h): 57.5 ng/mL
- AUC(0-t) ([3]; 1 mg/kg): 29700 ng·h/mL

SMILES: CC1(C)C[C@@H](Nc2cccc(-c3sc(C(=O)O)c(OCC(=O)O)c3Cl)c2)CCN1S(=O)(=O)Cc1cccc(NC(=O)N2CCC(c3ccc4c5c(cccc35)C(=O)N4[C@H]3CCC(=O)NC3=O)CC2)c1 [Ref. Cpd, reference compound]
- EC50 [2]: 473 nM
- Plasma concentration ([3]; 2 mg/kg, 24 h, LLOQ 0.50 ng/mL): BLOQ
- clearance ([3]; 2 mg/kg): 4.46 mL/min/kg
- concentration at 0.083 h ([3]; 2 mg/kg): 22700 ng/mL
- concentration at 0.25 h ([3]; 2 mg/kg): 8300 ng/mL
- concentration at 0.5 h ([3]; 2 mg/kg): 1290 ng/mL
- concentration at 1 h ([3]; 2 mg/kg): 318 ng/mL
- concentration at 2 h ([3]; 2 mg/kg): 148 ng/mL
- concentration at 4 h ([3]; 2 mg/kg): 79.4 ng/mL
- concentration at 8 h ([3]; 2 mg/kg): 29.3 ng/mL
- concentration at 10 h ([3]; 2 mg/kg): 18.9 ng/mL
- AUC(0-t) ([3]; 2 mg/kg): 7490 ng·h/mL
- DC50 [4]: 271 nM
- Dmax [4]: 96.8%
- DC50 [1]: 29.3 nM
- Dmax [1]: 96.3%
